Series [1] deals with larvae of Rhipicephalus microplus isolates with known resistance profiles. The series can be described thus: Tick larvae resistance assay (larval immersion test, LIT). As for the experimental part:
A tick resistance assay (i.e., larval immersion test, LIT) was carried out using larvae of several Rhipicephalus microplus isolates with known resistance profiles (i.e.: fully susceptible; resistant to dieldrin, coumaphos, DDT, chlorpyriphos, flumethrin, cypermethrin, amitraz, fluazuron).
Tick larvae (Rhipicephalus microplus) were immersed for approximately 3 minutes in test compound solution. Tick mortality was assessed approximately 24 hours after contact exposure. The vitality of used parasites was confirmed in negative control groups (i.e., an untreated control and a solvent control).

Series [2] concerns Rhipicephalus microplus tick larvae. The series can be described thus: Tick larvae contact assay. Particulars: read-out: Tick inhibition (% of damage+dead ticks). As for the experimental part:
Tick larvae (Rhipicephalus microplus) were immersed for approximately 3 minutes in declining concentrations of a test compound (dissolved in a DMSO-emulsifier-deionized water mixture). Tick inhibition (% of damage+dead ticks per test concentration) was assessed approximately 24 hours after contact exposure. The vitality of used parasites was confirmed in negative control groups (i.e. an untreated control and a solvent control).

Series [3] has as its system Fly larvae I (Lucilia cuprina). Kind of series: Fly larvae contact/feeding assay. To be noted: 48 h, read-out: Inhibition of fly larvae development. As for the experimental part:
Fly larvae I (Lucilia cuprina) were grown in medium spiked with declining concentrations of a test compound (dissolved in a DMSO-emulsifier-deionized water mixture). Inhibition of fly larvae development (%) was assessed after approximately 48 hours of continuous exposure. The vitality of used parasites was confirmed in negative control groups (i.e., an untreated control and a solvent control).

Series [4] concerns Adult fleas (Ctenocephalides felis). The series can be described thus: Flea feeding assay. Particulars: 48 h, read-out: flea inhibition (% of dead+damaged fleas). The essentials: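 Adult C. felis of defined age fed through artificial membranes on blood spiked with declining test-compound concentrations (DMSO-emulsifier-blood vehicle). After ~48 h continuous feeding, % dead plus damaged fleas per concentration was scored against untreated and solvent controls.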

Series [5] has as its system Mobile stages of sea lice (pre-adults, adults of Lepeophtheirus salmonis). Kind of series: Adult sea lice contact assay. Particulars: read-out: EC50 (sea lice inhibition, dead+damaged). As for the experimental part:
Mobile stages of sea lice (i.e., pre-adults, adults of Lepeophtheirus salmonis) were exposed to seawater spiked with declining concentrations of a test compound (dissolved in a PEG sea-water mixture). Sea lice inhibition (% of dead+damaged sea lice) was assessed after approximately 1 and 24 hours of continuous exposure in comparison to a negative (solvent) control group.

For series [6], the system named is Adult fleas (Ctenocephalides felis). Kind of series: Flea contact assay. To be noted: 48 h, read-out: flea inhibition (% of dead+damaged fleas). As for the experimental part: Adult fleas (Ctenocephalides felis) were exposed to filter paper impregnated with declining concentrations of a test compound (dissolved in a DMSO-emulsifier-deionized water mixture). After approximately 48 hours of continuous contact exposure, flea inhibition (% of dead+damaged fleas per test concentration) was assessed. The vitality of used parasites was confirmed in negative control groups (i.e., an untreated control and a solvent control).

The subject of series [7] is Lepeophtheirus salmonis. Kind of series: Salmon - in vivo efficacy against sea lice using in-feed administration. To be noted: for prophylactic efficacy against re-infestation: 1 mg/kg in feed for 7 days. As for the experimental part: Commercial fish feed pellets were coated with formulated test compound. As formulation DMSO 5%/fish oil 95% was used. Salmon (Salmo solar) were treated orally with 1 mg/kg fish biomass via coated feed for 7 consecutive days. Salmon of the negative control groups received only feed coated with the excipients of the formulation.
Fish of the therapeutic groups were infested with Lepeophtheirus salmonis copepodids twice before treatment (around day −28 and day −3).
Fish of the prophylactic groups were infested at several time points after treatment in 2-week intervals. The fish were assessed for (pre-)adult sea lice approximately 3 weeks after each re-infestation. At each assessment, all (pre-)adult sea lice were removed from the fish. […] Efficacy is expressed as a % reduction of sea lice in treated groups versus a control group using the Abbott's formula.

A short description of series [8]: In vitro test of rain fastness. To be noted: 5% solution in Miglyol 840 on rabbit hide, 4 hours, then 30 minutes in water. The series is classed as physicochemical. As for the experimental part: In addition to good absorbance, the composition according to the invention has a high resistance to water. After applying a 5% solution of Compound 453 in Miglyol 840 to rabbit hide and allowing to sit for 4 hours, the sample was soaked in water for 30 minutes.

Series [9] deals with Lepeophtheirus salmonis. The series can be described thus: Salmon - in vivo efficacy against sea lice using gavage administration. Particulars: 5 mg/kg once by gavage, counted around day 28. The essentials: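 Salmon given a single oral gavage of 5 mg/kg in 5% DMSO/95% fish oil on day 0, with vehicle controls. L. salmonis copepodid infestations around days −28, −3 and 17; lice counted by stage around day 28, efficacy as % reduction versus control by Abbott's formula.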

Series [10] relates to Mobile stages of sea lice (pre-adults, adults of Caligus rogercresseyi). The series can be described thus: Adult Caligus rogercresseyi sea lice contact assay. As for the experimental part: Mobile stages of sea lice (i.e., pre-adults, adults of Caligus rogercresseyi) were exposed to seawater spiked with declining concentrations of a test compound (dissolved in a PEG sea-water mixture). Sea lice inhibition (% of dead+damaged sea lice) was assessed after approximately 1, 24 and 48 hours of continuous exposure in comparison to a negative (solvent) and untreated control group.

For series [11], the system named is mobile sea lice stages of Lepeophtheirus salmonis-isolates with known resistance profiles. Kind of series: Sea lice resistance assay. As for the experimental part:
A sea lice resistance assay was carried out using mobile sea lice stages (i.e., pre-adults, adults) of several Lepeophtheirus salmonis-isolates with known resistance profiles (i.e.: fully susceptible, resistant to azametiphos (OP), emamectin benzoate (ML), deltamethrin (SP). Sea lice were exposed to seawater spiked with declining concentrations of a test compound (dissolved in a PEG300/sea-water mixture). Sea lice inhibition (% of dead+damaged sea lice) was assessed after approximately 1, 24 and 48 hour/s of continuous exposure in comparison to a negative (solvent) control group.

The mark [12] stands for this setting: 1 mg/kg fish biomass via coated feed for 7 consecutive days.

The LC50 is the concentration lethal to half of the exposed cells or organisms. High values mean lower toxicity, low ones greater toxicity. The term inhibition denotes the relative decrease from the control value, in per cent.

Molecules are shown by their SMILES. Where two headings read alike, the source gives them in different places.

For the compound `O=C(Nc1ccc(F)cc1F)c1cc(NC(=O)[C@H]2[C@H](c3ccc(F)c(Cl)c3)C2(Cl)Cl)ccc1Cl` [Compound 197], the LC50 in [1] (isolate resistant to Coumaphos, Flumethrin, Cypermethrin) worked out at 0.343 ppm; in [1] (isolate resistant to Coumaphos, Flumethrin, Cypermethrin, Amitraz) it was 0.375 ppm; in series [1] (isolate resistant to DDT, Dieldrin, Coumaphos), 0.346 ppm; in [1] (isolate resistant to DDT, Dieldrin, Coumaphos, Chlorpyriphos), 0.335 ppm; in series [1] (isolate resistant to Dieldrin, Coumaphos, Fluazuron) it was 0.270 ppm; in series [1] (isolate: Fully susceptible), 0.288 ppm. Moreover, in series [2], the inhibition at 25 µM is not below 80%. The inhibition at 49 µM in series [2] was found to be 80%. Also, the inhibition at 388 µM in series [2] was 80%. The inhibition at 100 ppm in series [2] and in series [3] was 80% in each case. Moreover, the inhibition at 1 ppm in [4] was found to be 80%. In series [5], the EC50 was 10 to 25 nM. In series [6], the inhibition at 1000 ppm came out at 80%.

Consider `O=C(Nc1ncc(F)cc1F)c1cc(NC(=O)[C@H]2[C@H](c3cc(Cl)cc(Cl)c3)C2(Cl)Cl)ccc1Cl` [Compound 453], for which the “therapeutic efficacy against (pre-)adult sea lice” value in series [7] (setting [12]) is reported as 100%. Further, the “therapeutic efficacy against juvenile sea lice” value in [7] (setting [12]) was 100%. For the same compound, the “prophylactic efficacy against re-infestation” value in series [7] (re-infestation D14) was 100%; in [7] (re-infestation D28) it was 99.9%; in series [7] (re-infestation D42) it was 86.0%. Besides, the “presence of Compound 453 in the water” value in [8] is recorded as “below the detection limit”. In addition, in series [8], the “weight loss after soaking in water” value turned out to be 4%. Also, in series [9], the “prophylactic efficacy at re-infestation on Day 17 (% reduction vs control)” value turned out to be 100%. Further, the EC50 in series [5] (pre-adults/adults, assessed after ~1 and 24 h) is not above 10 nM; in [10] (after 24 hours) it was 0.072 ppb; in series [10] (after 48 hours), 0.035 ppb; in series [11] (multi-resistant isolate, after 24 hours), 1.96 ppb; in series [11] (multi-resistant isolate, after 48 hours) it was 0.64 ppb; in [11] (sensitive isolate, after 24 hours) it was 1.20 ppb. In [11] (sensitive isolate, after 48 hours), the EC50 came to 0.29 ppb. In addition, in series [11], the “effectiveness against sensitive isolate and multi-resistant isolate” value is on record as “equally effective”.

These data come from US20240315993A1, “ANTIPARASITIC COMPOUNDS” (Intervet Inc., priority 2021, published 2024).
